Here are results for seven compounds from US9724341B2 (priority 2013, dated 2017).

By solubility is commonly meant how much of the substance goes into solution per volume.

The conditions of series [1]: for Nicotine Mass Loss: isothermal TGA, API powder. The protocol:
A typical calorimetric scan of nicotine m-salicylate powder is illustrated in FIG. 2. […] Thermogravimetric analysis on the powder was run in both scanning and isothermal modes. […] Isothermal data were also obtained on the API powder (˜10 mg per run) at 40° C., 50° C., and 60° C. for periods of at least 3 days.

The conditions of series [2]: for mechanical integrity of the film: dropped 5 times. The procedure: Fragility of the spray coating was tested using two foil arrays coated with ˜200 μg of nicotine per foil (˜11 μg nicotine/mm^2, which is about a 21 μm thick film of nicotine m-salicylate). Five foils from each array were assayed for pre-drop coated dose. Each foil array was then placed into a dose cartridge, sealed into a plastic tube, and dropped 3 times onto the floor from a height of about 1 meter. Five additional foils from each array were assayed for the post-drop coated dose.
In a follow-up study, we studied the effect of thickness on the mechanical integrity of the film. In this experiment, three foils from an array were assayed for pre-drop coated dose. Each foil array was then placed into a dose cartridge, sealed into a plastic tube, and dropped 5 times onto the floor from a height of about 1 meter. Three foils from each array were then assayed for the post-drop coated dose.

The conditions of series [3]: sensitive LC method for phenol.
How the values of series [4] were obtained: The innate volatility of free base nicotine can be greatly altered once bound to a counterion acid. The stability of nicotine in the resulting salt form can vary widely, ultimately impacting its desirability for commercial consideration. Certain packaging configurations can mitigate nicotine loss. […] Decreasing the equilibrium vapor pressure point is believed to minimize the total nicotine loss. For this study, different packaging configurations were tested to investigate the following variables: container material, presence of adjuncts, and total volume of space. Container materials consisted of either glass or multi-laminate foil pouches. Glass is impermeable to vapors. Once the total volume of the glass container is flooded with nicotine vapors and any surface adsorption occurs, equilibrium is reached and no additional loss of nicotine should be observed. Though foil is also impermeable, the inner surface of the pouch is lined with an ethylene acid copolymer that promotes vapor absorbency. The copolymer should lead to greater nicotine loss within a pouch than a glass vial of the same total volume.
The presence of adjuncts, such as a drug cartridge housing, is a likely scenario for the final commercial product. The composition of the adjunct will affect equilibrium vapor pressure point if it preferentially absorbs vapors. For this study, a polycarbonate adjunct with a surface area of ˜150 cm^2 was introduced to the glass vial and pouch scenarios. Finally, the total packaging volume was examined. The smaller the available space, the sooner the equilibrium pressure can be reached. Open containers represent the worst case scenario, as the infinite space means that the equilibrium pressure can never be achieved. To set up the experiment, screening foils were spray coated with a 1×2 cm footprint of nicotine m-salicylate to a thickness of ˜11 ug nicotine/mm^2 (equivalent to a coated dose of 200 ug nicotine equivalent on an EMD foil). After a few random screening foils were assayed for initial time point coated dose, the remaining foils were placed in one of the following containers: • Capped glass vial (˜40 mL volume) • Heat-sealed standard pouch (˜133 mm×87 mm) • Heat-sealed standard pouch, stored with polycarbonate material (˜150 cm^2 surface area) • Uncapped glass vial (same vial as first bullet) • Binder-clipped (semi-sealed) standard pouch (˜133 mm×87 mm) • Capped glass vial, stored with polycarbonate • Heat-sealed half pouch (˜69 mm×87 mm) • Uncovered Petri dish
The packaged screening foils were stored at either 40° C. (oven) or 25° C. (laboratory cabinet), without relative humidity control. At pre-determined time points, three foils from each condition were washed with 5 mL of 50% v/v acetonitrile in water and analyzed on the HPLC for nicotine and m-salicylate content.
The source holds these as a separate data set.

How the values of series [5] were obtained:
Solubility limit tests were performed on nicotine m-salicylate in a number of relevant solvents. […] The approximate saturation limits are in units of mg nicotine equivalent per mL of solvent. […] However, the analytical methods developed for detecting impurities related to the m-salicylate use 236 nm as the detection wavelength. Methanol has high absorbance in this range and can therefore interfere with the analytes of interest. Acetonitrile, on the other hand, has low background absorbance in this wavelength range and is therefore ideal for use.
This is another data set of the same source.

The conditions of series [6]: for time coated film relatively stable (not more than 20% nicotine loss): 40 μg/foil; for time coated film stable (nicotine): 170 μg/foil. The protocol:
Loss of nicotine and m-salicylic acid due to volatility and hygroscopic effects: Nicotine salts can suffer volatility issues and can also be quite hygroscopic. For instance, nicotine sulfate absorbs water so readily that it is shipped in aqueous solution. Hygroscopic effects on nicotine m-salicylate were evaluated for 2 doses at two conditions, 22° C./44% RH (ambient condition) and 40° C./75% RH. According to the Antoine equation for water, 40° C./75% RH translates to supersaturated humidity at 22° C. Each coated EMD array was placed flat on a Petri dish (without a cover) which was then stored at either 22° C./44% RH or 40° C./75% RH. At each time point, at least 4 random individual foils were removed from the array and each foil was extracted with 1.5 ml of 50/50 ACN/water for coated dose determination.

For series [7] the following is noted: 25° C.; cited from earlier work.
Where [8] appears, read: film thickness 29 μm, Post-drop (5 drops, about 1 meter).
[9] abbreviates: film thickness 37 μm, Post-drop (5 drops, about 1 meter).

Like-named read-outs stand apart in the source and are kept apart here.

For `CC(C)(C(=O)O)C(=O)O.CC(C)(C(=O)O)C(=O)O.CN1CCCC1c1cccnc1` (stereo not drawn) [Nicotine bidimethylmalonate], the “Nicotine Mass Loss” value came to 4 µg/day in series [1] (40° C.), 14 µg/day in series [1] (50° C.) and 53 µg/day in series [1] (60° C.).
Regarding `CN1CCCC1c1cccnc1.O=C(O)C(O)C(O)C(=O)O` (stereo not drawn) [Nicotine bitartrate], the “Nicotine Mass Loss” value in series [1] (40° C.) was found to be 1 µg/day; in series [1] (50° C.) it was 3 µg/day; in series [1] (60° C.), 10 µg/day.
As for `CN1CCCC1c1cccnc1.O=C(O)c1cccc(O)c1` (stereo not drawn) [Nicotine m-salicylate, nicotine meta-salicylate], the “mechanical integrity of the film” value in series [2] (350 μg nicotine (~37 μm thick)) is reported as “begin to show signs of fragility”; in series [2] (~29 μm thickness), “not lost”. Besides, the “M-salicylate coated dose (average ± 1 standard deviation)” value in series [2] (setting [8]) is 244 ± 3; in series [2] (film thickness 29 μm, Pre-drop) it was 247 ± 1; in series [2] (setting [9]), 299 ± 7; in series [2] (film thickness 37 μm, Pre-drop), 311 ± 0. The “Nicotine coated dose (average ± 1 standard deviation)” value is recorded as 277 ± 3 in series [2] (setting [8]); 275 ± 3 in series [2] (film thickness 29 μm, Pre-drop); 335 ± 6 in series [2] (setting [9]); 347 ± 6 in series [2] (film thickness 37 μm, Pre-drop). Moreover, the “coated dose post-drop vs pre-drop, average of two arrays” value in series [2] (~200 μg nicotine per foil, dropped 3 times) is reported as about 0.8%. In series [3], the “maximum content of phenol in aerosols (estimated from method sensitivity; phenol not observed)” value was at most 0.013%. Further, the MMAD reads like this: (NGI cups coated with 1% (w/v) benzoic acid) 0.9 um; (bare NGI cups, 30 LPM, average) 0.7 μm. In addition, where the note is “overall conclusion”, the Particle size result is “about 1 μm”. Moreover, the “loss of nicotine content” value was 13% in series [4] (25° C., Petri dish, 18 weeks); at most 10% in series [4] (40° C., all other stabilized (sealed) conditions); about 20% in series [4] (40° C., sealed standard sized pouches containing polycarbonate material). For the same compound, the m-salicylic acid content entry in series [4] (25° C., all eight conditions) is “stable”. Besides, in series [4] (25° C., up to 18 weeks, all conditions except Petri dish), the Nicotine loss is on record as ≤ 7 % of initial. Further, the m-salicylate content in series [4] (40° C., all other configurations, 16 weeks) was 100-110 % of initial; in series [4] (Petri dish, four weeks at 40° C.) it was ~80 % of initial. The Saturation point in series [5] (50/50 acetonitrile/water) is recorded as 64 mg nicotine/mL; in series [5] (80/20 methanol/water) it was 118 mg nicotine/mL; in series [5] (Acetonitrile), 9 mg nicotine/mL; in series [5] (Ethanol) it was 33 mg nicotine/mL; in series [5] (Methanol) it was 103 mg nicotine/mL; in series [5] (Water), 58 mg nicotine/mL. Further, in series [5] (acetone), the Saturation point is recorded as <<10 mg nicotine/mL. For the same compound, the results for the solubility in series [5] (acetone) and in series [5] (pure acetonitrile) were under 10000 µg/mL and about 10000 µg/mL, respectively. In addition, the “Nicotine Mass Loss” value is 5 µg/day in series [1] (40° C.), 19 µg/day in series [1] (50° C.) and 107 µg/day in series [1] (60° C.). The “residual after scanning TGA” value in series [1] (room temperature to 500° C., pan weighed before and after) is reported as about 0.2%. Also, the “nicotine mass loss, times less than nicotine ortho-salicylate” value in series [1] (storage temperatures between 40-60° C.) is listed as 2-3 ×. Also, the “time coated film relatively stable (not more than 20% nicotine loss)” value is reported as “up to 4 weeks” in series [6] (22° C./60% RH), at most 5 days in series [6] (35° C./80% RH) and “up to 4 hours” in series [6] (60° C./35% RH). Besides, the “time coated film stable (nicotine)” value in series [6] (22° C./60% RH) is at least 4 weeks; in series [6] (25° C./90% RH), at least 13 days; in series [6] (35° C./80% RH) it was at least 7 days; in series [6] (60° C./35% RH), “at least 8 hours”. In series [6] (all conditions except the 40 μg/foil dose at 25° C./90% RH), the “M-salicylic acid stability of coated films” value is “relatively stable”.
Take `CN1CCCC1c1cccnc1.O=C(O)/C=C/C(=O)O` (stereo not drawn) [Nicotine monofumarate]: the results for the “Nicotine Mass Loss” value in series [1] (40° C.), in series [1] (50° C.) and in series [1] (60° C.) were 7 µg/day, 39 µg/day and 219 µg/day, respectively.
On the same counts, the results for `CN1CCC[C@H]1c1cccnc1.O=C(O)c1ccccc1O` [Nicotine o-salicylate, nicotine ortho-salicylate] are 15 µg/day, 48 µg/day and 178 µg/day.
In the case of `CN1CCCC1c1cccnc1` (stereo not drawn) [Nicotine], the vapor pressure in series [7] is 0.0425 mmHg.
As for Nicotine bifumarate, the “Nicotine Mass Loss” value in series [1] (40° C.) came out at 12 µg/day; in series [1] (50° C.), 66 µg/day; in series [1] (60° C.), 305 µg/day.
